Values after ≈ are worked out from the molar mass of the structure shown. Where two headings read alike, the source gives them in different places.

This note sets out measurements from paper PMC9503132, “Development of Halogenated-Chalcones Bearing with Dimethoxy Phenyl Head as Monoamine Oxidase-B Inhibitors” (Pharmaceuticals, 2022).

One data set deals with BChE (Equus caballus, UniProt P81908). Put plainly: biochemical. The conditions noted are these: read-out: Residual activity at 10 µM (%) BChE. How it is done: (§1) The AChE and BChE inhibitory activities were measured by continuous colorimetric determination method, in the presence of 0.5 mM acetylthiocholine iodide (ACTI) and butyrylthiocholine iodide […]
Chain of BChE (P81908 whole entry): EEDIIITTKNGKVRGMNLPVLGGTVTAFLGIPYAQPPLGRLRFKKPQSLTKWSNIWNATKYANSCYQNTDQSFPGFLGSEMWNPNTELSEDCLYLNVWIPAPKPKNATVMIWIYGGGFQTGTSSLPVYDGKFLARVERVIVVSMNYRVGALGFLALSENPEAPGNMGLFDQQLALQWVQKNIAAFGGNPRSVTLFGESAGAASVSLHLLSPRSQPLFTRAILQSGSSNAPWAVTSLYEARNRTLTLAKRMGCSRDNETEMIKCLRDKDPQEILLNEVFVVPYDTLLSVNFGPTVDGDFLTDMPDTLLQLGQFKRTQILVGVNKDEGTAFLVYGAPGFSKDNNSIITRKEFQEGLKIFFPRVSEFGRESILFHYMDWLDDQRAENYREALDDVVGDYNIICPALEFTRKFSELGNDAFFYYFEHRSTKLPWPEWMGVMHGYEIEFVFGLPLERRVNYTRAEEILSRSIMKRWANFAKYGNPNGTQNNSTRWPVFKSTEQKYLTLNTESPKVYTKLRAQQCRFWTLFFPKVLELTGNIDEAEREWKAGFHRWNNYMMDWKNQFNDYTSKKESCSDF
(§2) POP, K LAB, Daejeon, Korea). After adding the substrate, 0.5 mM 5,5-dithiobis (2-nitrobenzoic acid) (DTNB) was added as the color development solution. The BACE-1 inhibitory activity was evaluated by β-secretase (BACE1) activity detection kit (Sigma-Aldrich, St. Louis, Mo, USA) using a fluorescence spectrometer (FS-2, Scinco, Seoul, Korea). […]

The next data set concerns the target T1, BACE-1 (Homo sapiens, UniProt P56817).
T1 construct: purchased Sigma-Aldrich
The experiment in a line: BACE-1 inhibition (β-secretase activity detection kit). Format: biochemical. As to conditions: 10 µM compound; read-out: Residual activity at 10 µM (%) BACE-1. How it is done: as §1, §2

The target in the next data set is T2, MAO-A (Homo sapiens, UniProt P21397).
T2 construct: purchased Sigma-Aldrich
T2 sequence (P21397 1-527): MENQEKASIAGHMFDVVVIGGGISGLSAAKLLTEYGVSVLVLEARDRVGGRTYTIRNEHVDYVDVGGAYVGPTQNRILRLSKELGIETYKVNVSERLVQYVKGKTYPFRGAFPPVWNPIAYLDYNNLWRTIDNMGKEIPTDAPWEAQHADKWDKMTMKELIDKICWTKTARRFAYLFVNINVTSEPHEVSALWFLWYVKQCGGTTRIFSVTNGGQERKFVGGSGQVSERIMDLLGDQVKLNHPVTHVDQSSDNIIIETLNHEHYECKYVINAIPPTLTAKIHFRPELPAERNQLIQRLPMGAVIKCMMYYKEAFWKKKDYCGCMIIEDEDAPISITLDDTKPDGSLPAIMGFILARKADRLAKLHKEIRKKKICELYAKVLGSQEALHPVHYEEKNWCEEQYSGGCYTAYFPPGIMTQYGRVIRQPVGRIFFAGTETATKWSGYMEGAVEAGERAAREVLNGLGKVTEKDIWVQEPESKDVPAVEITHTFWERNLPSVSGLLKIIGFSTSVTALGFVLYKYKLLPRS
Put plainly: MAO-A inhibition assay (recombinant enzyme, kynuramine substrate). It is filed as biochemical. The conditions noted are these: recombinant MAO-A, kynuramine 0.06 mM; for remaining activity at 10 µM: 10 µM compound, read-out: Residual Activity at 10 µM (%) MAO-A; for IC50: read-out: IC50 (µM) MAO-A. How it is done:
(§3) Recombinant MAO-A and MAO-B were used to test the MAO inhibitory activity using the substrates kynuramine and benzylamine (0.06 mM and 0.3 mM, respectively). […] Chemicals were from Sigma-Aldrich.
(§4) MAO-A At 10 µM, compounds’ inhibitory effects on MAOs were initially recorded. […] The SI values of MAO-B were calculated by dividing the IC50 values for MAO-A and those for MAO-B. The MAO-B was used to study the kinetics of substances DM2 or DM18 at five different substrate concentrations. By using the LB plots and their secondary plots at three different inhibitor doses, the inhibition patterns were examined.

In data set [1] the target is T3, MAO-B (Homo sapiens, UniProt P27338).
T3 construct: purchased Sigma-Aldrich
T3 sequence (P27338 1-520): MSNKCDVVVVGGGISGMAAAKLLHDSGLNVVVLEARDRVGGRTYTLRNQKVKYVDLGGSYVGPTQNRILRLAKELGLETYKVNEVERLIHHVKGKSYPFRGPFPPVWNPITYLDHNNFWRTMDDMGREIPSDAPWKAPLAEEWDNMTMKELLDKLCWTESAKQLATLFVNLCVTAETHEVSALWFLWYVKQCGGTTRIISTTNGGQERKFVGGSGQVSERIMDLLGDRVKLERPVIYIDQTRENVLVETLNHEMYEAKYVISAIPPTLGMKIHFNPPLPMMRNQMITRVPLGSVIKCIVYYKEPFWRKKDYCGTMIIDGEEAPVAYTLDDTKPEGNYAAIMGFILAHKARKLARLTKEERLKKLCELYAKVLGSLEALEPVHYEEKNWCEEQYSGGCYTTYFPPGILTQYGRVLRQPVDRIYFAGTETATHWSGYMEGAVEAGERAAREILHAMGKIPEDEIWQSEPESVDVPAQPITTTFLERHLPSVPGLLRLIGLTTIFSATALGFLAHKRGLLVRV
Put plainly: MAO-B kinetic study (Lineweaver-Burk and secondary plots). Format: biochemical. As to conditions: for Inhibition pattern of MAO-B: Lineweaver-Burk plots, five substrate and three inhibitor concentrations; for Ki: secondary plots of LB slopes vs. inhibitor concentration. How it is done:
as §4

The next data set deals with AChE (Electrophorus electricus, UniProt O42275). Put plainly: AChE inhibition (colorimetric, acetylthiocholine iodide). Format: biochemical. As to conditions: read-out: Residual activity at 10 µM (%) AChE. How it is done: as §1
Chain of AChE (O42275 24-633): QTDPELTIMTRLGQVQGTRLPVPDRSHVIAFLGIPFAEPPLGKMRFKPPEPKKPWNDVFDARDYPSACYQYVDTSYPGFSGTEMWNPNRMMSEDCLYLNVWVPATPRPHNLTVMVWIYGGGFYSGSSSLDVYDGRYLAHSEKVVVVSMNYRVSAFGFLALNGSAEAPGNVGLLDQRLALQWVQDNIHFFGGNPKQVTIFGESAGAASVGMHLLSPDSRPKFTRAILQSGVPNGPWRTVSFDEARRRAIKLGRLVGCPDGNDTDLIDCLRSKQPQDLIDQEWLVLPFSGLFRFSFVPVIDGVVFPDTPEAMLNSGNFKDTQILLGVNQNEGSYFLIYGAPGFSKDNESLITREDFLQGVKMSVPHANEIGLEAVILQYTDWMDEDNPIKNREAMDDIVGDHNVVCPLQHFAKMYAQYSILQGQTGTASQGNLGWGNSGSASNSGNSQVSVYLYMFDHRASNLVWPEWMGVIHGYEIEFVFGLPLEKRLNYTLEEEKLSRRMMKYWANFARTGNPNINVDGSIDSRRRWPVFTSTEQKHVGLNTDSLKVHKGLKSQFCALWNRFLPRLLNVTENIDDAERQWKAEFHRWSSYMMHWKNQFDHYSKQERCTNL
POP, K LAB, Daejeon, Korea). After adding the substrate, 0.5 mM 5,5-dithiobis (2-nitrobenzoic acid) (DTNB) was added as the color development solution. The BACE-1 inhibitory activity was evaluated by β-secretase (BACE1) activity detection kit (Sigma-Aldrich, St. Louis, Mo, USA) using a fluorescence spectrometer (FS-2, Scinco, Seoul, Korea).
64. […] A new and rapid colorimetric determination of acetylcholinesterase activity. Biochem. Pharmacol. 7, 88-95. […]

The test system of another data set is Vero cells. Put plainly: MTT cytotoxicity test on Vero cells. Format: cell-based, African green monkey. As to conditions: 300 µg/mL, 48 h, phase contrast microscope. How it is done: (§5) Vero cells were treated to various doses (10–500 µg/mL) for 48 h, and relative cell viability was determined by measuring the absorbance at 570 nm with an ELISA microplate.
(§6) Cytotoxicity study of the lead molecule DM2 was carried out as previously described and as in Supplementary Materials described shortly.
(§7) Text S1. Supplementary procedure for toxicity evaluation
(§8) The cell line of Vero (African green monkey kidney cells) was procured from NCCS (Pune, India) and was grown in liquid medium (DMEM) containing 100 ug/mL penicillin, 100 µg/mL streptomycin, and 10% Fetal Bovine Serum (FBS) and preserved under an atmosphere of 5% CO2 at […]
(§9) The DM2 was assayed for in vitro cytotoxicity by MTT assay using the cultured Vero cells.
(§10) Briefly, the cultured Vero cells were produced by cell dissociation with trypsin (trypsinization), collectively in a 15 mL tube. At a density of 1×10^5 cells/mL cells/well (200 µL), the cells were plated for 24-48 h at 37°C into 96-well tissue culture plate in DMEM medium containing 10 % FBS and 1% antibiotic solution. The wells were washed with sterile phosphate buffered saline (PBS) and further allowed to react with varying concentrations of the DM2 in a serum free DMEM medium. The samples were triplicated and the cells were kept for incubation at 37°C for 24 h in a humidified 5% CO2 incubator. MTT (20 µL of 5 mg/mL) was added into each well after the incubation and the cells were incubated for another 2-4 h. The end point was determined by the purple precipitation, which was clearly seen under an inverted microscope. At the end, the medium along with MTT (220 µL) were used for the aspiration of the wells and later washed with 1X PBS (200 µL). In order to dissolve formazan crystals, DMSO (100 µL) was added to the plate with shaking for 5 min. The absorbance at 570 nm was measured using a micro plate reader (Thermo Fisher Scientific, USA). The IC50 value and the percentage cell viability was calculated using GraphPad Prism 8.0 software (USA).
(Tetrazolium dyes change colour on reduction, which living cells bring about.)

Data set [2] can be described thus: MTT cytotoxicity test on Vero cells. Format: cell-based, African green monkey. As to conditions: African green monkey, Vero cells, MTT. How it is done: as §5, §6, §7, §8, §9, §10
Data set [3] has as its target T3, MAO-B. The experiment in a line: Reversibility of MAO-B inhibition by dialysis. Format: biochemical. The conditions noted are these: for Reversibility of MAO-B inhibition: dialysis experiment; for Relative MAO-B activity, dialyzed (AD) / Relative MAO-B activity, undialyzed (AU): ~2 × IC50 (DM2 0.13, DM18 0.24, lazabemide 0.22, pargyline 0.28 µM), 30 min preincubation; for Relative MAO-B activity, dialyzed (AD): after dialysis. How it is done: To identify the reversibility patterns, the relative activities for samples dialyzed (AD) and for those undialyzed (AU) were compared.
By contrasting the recovery results of samples that had been dialyzed (AD) and undialyzed (AU), reversibility patterns were determined.

Data set [4] deals with T3, MAO-B. Put plainly: MAO-B inhibition assay (recombinant enzyme, benzylamine substrate). It is filed as biochemical. As to conditions: for remaining activity at 10 µM: 10 µM compound, read-out: Residual Activity at 10 µM (%) MAO-B; for remaining activity at 10 µM / IC50: recombinant MAO-B, benzylamine 0.3 mM; for IC50: read-out: IC50 (µM) MAO-B. How it is done: as §3, §4

The mark [5] stands for this setting: IC50 MAO-A divided by IC50 MAO-B.

T1 sequence (P56817 46-501): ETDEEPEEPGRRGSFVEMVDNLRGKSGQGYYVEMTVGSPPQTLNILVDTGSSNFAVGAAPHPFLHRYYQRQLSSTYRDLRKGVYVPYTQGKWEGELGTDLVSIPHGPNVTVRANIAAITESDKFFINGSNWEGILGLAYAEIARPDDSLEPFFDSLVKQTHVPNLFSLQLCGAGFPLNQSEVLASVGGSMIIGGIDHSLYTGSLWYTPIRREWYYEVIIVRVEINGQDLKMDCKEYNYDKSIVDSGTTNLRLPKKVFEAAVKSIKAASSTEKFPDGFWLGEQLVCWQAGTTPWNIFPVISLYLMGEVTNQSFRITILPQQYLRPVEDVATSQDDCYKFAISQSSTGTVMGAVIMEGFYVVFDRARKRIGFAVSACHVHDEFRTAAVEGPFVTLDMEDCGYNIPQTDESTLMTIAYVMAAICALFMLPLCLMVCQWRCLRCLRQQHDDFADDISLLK

One may read the IC50 as the midpoint of a concentration-inhibition curve. What is called Ki is a measure of affinity in units of concentration, obtained from inhibition or displacement. Broadly, the viability is a read-out of living cells in per cent, often relative to untreated cells. Consider `COc1ccc(C(=O)/C=C/c2ccccc2Cl)c(OC)c1` [DM2], for which the remaining activity at 10 µM at BChE came to 64.16 ± 0.44%. The remaining activity at 10 µM at BACE-1 is 100.5 ± 0.18%. For the same molecule, at MAO-A, the remaining activity at 10 µM amounted to 41.5 ± 1.59% and the IC50 was 6.29 ± 0.432 µM. Moreover, at MAO-B [1], the “Inhibition pattern of MAO-B” value is given as “competitive inhibitors” and the Ki came out at 0.032 ± 0.004 µM. In addition, on AChE, the remaining activity at 10 µM was determined as 71.9 ± 2.87%. Besides, in the data set with Vero cells, the “Morphological observation of Vero cells” value was “cytotoxicity was evident in cell shrinkage and blebbing, and cellular density decreased”. Also, in [2] (Vero cells (kidney epithelial cells), 10–500 µg/mL, read-out: IC50 (Vero cell viability)), the IC50 at 48 h was 183 µg/mL (≈ 605 µM). In addition, in [2] (100 µg/mL, read-out: Cells alive (relative cell viability)), the viability at 48 h, 100 µg/mL came to 80%. At MAO-B [3], the “Reversibility of MAO-B inhibition” value was “reversible”; the “Relative MAO-B activity, dialyzed (AD)” value was determined as 74.0%; the “Relative MAO-B activity, undialyzed (AU)” value is reported as 36.0%.

`COc1ccc(C(=O)/C=C/c2ccc(Br)cc2)cc1OC` [DM17]: the remaining activity at 10 µM at MAO-B [4] turned out to be 13.8 ± 0.61%; at BChE, 68.9 ± 1.57%; on BACE-1, 100.03 ± 0.04%; on MAO-A, 96.88 ± 0.88%; on AChE it was 81.8 ± 6.31%. Further, the “SI (selectivity index for MAO-B as compared to MAO-A)” value on MAO-B [4] (setting [5]) is reported as over 273.97. The IC50 at MAO-B [4] is 0.146 ± 0.041 µM; at MAO-A, over 40 µM.

Take `COc1ccc(C(=O)/C=C/c2ccccc2F)cc1OC` [DM18]: on MAO-B [4], the remaining activity at 10 µM is 8.87 ± 1.08% and the IC50 turned out to be 0.118 ± 0.036 µM. Further, the “SI (selectivity index for MAO-B as compared to MAO-A)” value at MAO-B [4] (setting [5]) was over 338.98. At MAO-B [4] (ortho-F (DM18) versus meta-F (DM19)), the “Times more MAO-B inhibition than meta-F analogue DM19” value is 3.75. The remaining activity at 10 µM on BChE came out at 59.5 ± 4.08%. The remaining activity at 10 µM at BACE-1 was 99.94 ± 0.01%. Moreover, at MAO-A, the remaining activity at 10 µM is 100 ± 0.01% and the IC50 is over 40 µM. At MAO-B [1], the “Inhibition pattern of MAO-B” value was “competitive inhibitors” and the Ki came out at 0.045 ± 0.001 µM. In addition, the remaining activity at 10 µM at AChE turned out to be 78.5 ± 4.89%. At MAO-B [3], the “Reversibility of MAO-B inhibition” value is reported as “reversible”; the “Relative MAO-B activity, dialyzed (AD)” value is given as 76.6%; the “Relative MAO-B activity, undialyzed (AU)” value is reported as 40.1%.

For `COc1ccc(C(=O)/C=C/c2cccc(F)c2)cc1OC` [DM19], the remaining activity at 10 µM came to 3.94 ± 1.76% at MAO-B [4]; 103 ± 8.13% at BChE; 99.86 ± 0.12% on BACE-1; 93.7 ± 7.16% at MAO-A; 70 ± 2.02% at AChE. For the same molecule, the “SI (selectivity index for MAO-B as compared to MAO-A)” value on MAO-B [4] (setting [5]) was over 88.89. The IC50 is 0.45 ± 0.071 µM at MAO-B [4] and over 40 µM on MAO-A.

As for `COc1ccc(C(=O)/C=C/c2ccc(F)cc2)cc1OC` [DM20], the “SI (selectivity index for MAO-B as compared to MAO-A)” value on MAO-B [4] is given as over 83.82. In addition, the remaining activity at 10 µM was 3.7% on MAO-B [4]; 93.1 ± 6.5% on BChE; 99.89 ± 0.08% on BACE-1; 97.5 ± 8.95% on MAO-A; 86.98 ± 0.45% on AChE. Further, the IC50 on MAO-B [4] was 0.483 ± 0.077 µM; on MAO-A it was over 40 µM.
